Reference: patent publication US20250221988A1 (Cullgen (Shanghai), Inc., priority 2022, published 2025)
Read-outs that look alike come from different tables or passages of the source.

How the values were obtained:
[1] = tested on: MV4;11 cells; assay: Cell viability assay (CellTiter-Glo) in MV4;11 cells; format: cell-based; conditions: read-out: MV4
Method: (§1) Cell Culture: RS4;11, MV4;11, MOLM-13 and other cells were cultured at 37° C. with 5% CO2 in RPMI 1640 or DMEM Medium supplemented with 10% fetal bovine serum. Cells were authenticated using the short tandem repeat (STR) assays. Mycoplasma test results were negative.
(§2) Cell viability assays: Cells were seeded at a density of 5000 cells per well in 96-well assay plates and treated with test compounds following a 8-point or 12-point 3-fold serial dilution. Three days later, cell viability was determined using the CellTiter-Glo assay kit according to the manufacturer's instructions. The dose-response curves were determined and IC50 values were calculated using the GraphPad Prism software following a nonlinear regression (least squares fit) method.
The IC50 values (nM) of each compound were determined in MV4;11 and MOLM-13 cells with or without gilteritinib (10 nM for MV4;11; and 20 nM for MOML-13) as described in the Materials and Methods subsection and calculated using the GraphPad Prism 5.0 software.

[2] = tested on: MOLM-13 cells; assay: Cell viability assay (CellTiter-Glo) in MOLM-13 cells; format: cell-based
Method: as §1
as §2, with “method. […]” for “method.”

[3] = Homo sapiens, MV4-11, 72 h, MV4;11 cells, compound alone, three days, 11 IC50
[4] = MV4;11 cells, with 10 nM gilteritinib, three days, 11 IC50 (nM) + 10 nM Gil
[5] = Homo sapiens, 72 h, MOLM-13 cells, compound alone, three days, read-out: MOLM-13 IC50
[6] = MOLM-13 cells, with gilteritinib, three days, read-out: MOLM-13 IC50 (nM) + 10 nM Gil
[7] = Homo sapiens, MV4-11, 72 h, 11 IC50 (nM)
[8] = 11 IC50 (nM) + 10 nM Gil, MV4;11 cells, with 10 nM gilteritinib, three days
[9] = Homo sapiens, MOLM-13, 72 h, read-out: MOLM-13 IC50 (nM)
[10] = read-out: MOLM-13 IC50 (nM) + 10 nM Gil, MOLM-13 cells, with gilteritinib, three days

| IC50 [1, 3] [nM] | IC50 [1, 4] [nM] | IC50 [2, 5] [nM] | IC50 [2, 6] [nM] | Compound | IC50 [1, 7] [nM] | IC50 [1, 8] [nM] | IC50 [2, 9] [nM] | IC50 [2, 10] [nM] |
| --- | --- | --- | --- | --- | --- | --- | --- | --- |
| 100 to 1000 | 10 to 100 | > 1000 | 100 to 1000 | CN1CC(c2ccc3ncc(-c4cn([C@H]5C[C@H](CNc6ccc7c(c6)C(=O)N(C6CCC(=O)NC6=O)C7=O)C5)nc4C4CC4)nc3c2)C1 (stereo partly drawn) [GS-655, 5-(((Trans-3-(3-cyclopropyl-4-(7-(1-methylazetidin-3-yl)quinoxalin-2-yl)-1H-pyrazol-1-yl)cyclobutyl)methyl)amino)-2-(2,6-dioxopiperidin-3-yl)isoindoline-1,3-dione] | – | – | – | – |
| 10 to 100 | 10 to 100 | 100 to 1000 | 10 to 100 | CC(C)n1ncc2cnc(-c3cn([C@H]4C[C@H](CNc5ccc6c(c5)C(=O)N(C5CCC(=O)NC5=O)C6=O)C4)nc3C(F)F)cc21 (stereo partly drawn) [GS-656, 5-(((Trans-3-(3-(difluoromethyl)-4-(1-isopropyl-1H-pyrazolo[4,3-c]pyridin-6-yl)-1H-pyrazol-1-yl)cyclobutyl)methyl)amino)-2-(2,6-dioxopiperidin-3-yl)isoindoline-1,3-dione] | – | – | – | – |
| 10 to 100 | < 10 | 10 to 100 | < 10 | Cn1ncc2cnc(-c3cn([C@H]4C[C@H](CNc5ccc6c(c5)C(=O)N(C5CCC(=O)NC5=O)C6=O)C4)nc3C(F)F)cc21 (stereo partly drawn) [GS-657, 5-(((Trans-3-(3-(difluoromethyl)-4-(1-methyl-1H-pyrazolo[4,3-c]pyridin-6-yl)-1H-pyrazol-1-yl)cyclobutyl)methyl)amino)-2-(2,6-dioxopiperidin-3-yl)isoindoline-1,3-dione] | – | – | – | – |
| > 1000 | 100 to 1000 | > 1000 | 100 to 1000 | Cn1cnc2cnc(-c3cn([C@H]4C[C@H](CNc5ccc6c(c5)C(=O)N(C5CCC(=O)NC5=O)C6=O)C4)nc3C3CC3)cc21 (stereo partly drawn) [GS-658, 5-(((Trans-3-(3-cyclopropyl-4-(1-methyl-1H-imidazo[4,5-c]pyridin-6-yl)-1H-pyrazol-1-yl)cyclobutyl)methyl)amino)-2-(2,6-dioxopiperidin-3-yl)isoindoline-1,3-dione] | – | – | – | – |
| < 10 | < 10 | < 10 | < 10 | O=C1CCC(N2C(=O)c3ccc(NC[C@H]4C[C@H](n5cc(-c6cnc7ccc(N8CCC(O)C8)cc7n6)c(C6CC6)n5)C4)cc3C2=O)C(=O)N1 (stereo partly drawn) [GS-659, 5-(((Trans-3-(3-cyclopropyl-4-(7-(3-hydroxypyrrolidin-1-yl)quinoxalin-2-yl)-1H-pyrazol-1-yl)cyclobutyl)methyl)amino)-2-(2,6-dioxopiperidin-3-yl)isoindoline-1,3-dione] | – | – | – | – |
| < 10 | < 10 | < 10 | < 10 | CC(C)n1cc2ccnc(-c3cn([C@H]4C[C@H](CNc5ccc6c(c5)C(=O)N(C5CCC(=O)NC5=O)C6=O)C4)nc3C3CC3)c2n1 (stereo partly drawn) [GS-660, 5-(((Trans-3-(3-cyclopropyl-4-(2-isopropyl-2H-pyrazolo[3,4-c]pyridin-7-yl)-1H-pyrazol-1-yl)cyclobutyl)methyl)amino)-2-(2,6-dioxopiperidin-3-yl)isoindoline-1,3-dione] | – | – | – | – |
| – | – | – | – | CC(C)n1ncc2ccnc(-c3cn([C@H]4C[C@H](CNc5ccc6c(c5)C(=O)N(C5CCC(=O)NC5=O)C6=O)C4)nc3C3CC3)c21 (stereo partly drawn) [GS-661, 5-(((Trans-3-(3-cyclopropyl-4-(1-isopropyl-1H-pyrazolo[3,4-c]pyridin-7-yl)-1H-pyrazol-1-yl)cyclobutyl)methyl)amino)-2-(2,6-dioxopiperidin-3-yl)isoindoline-1,3-dion] | 10 to 100 | < 10 | 10 to 100 | < 10 |
| > 1000 | – | > 1000 | – | O=C1CCC(N2Cc3ccc(NC[C@H]4C[C@H](n5cc(-c6cnc7ccccc7n6)c(C6CC6)n5)C4)cc3C2=O)C(=O)N1 (stereo partly drawn) [GS-662, 3-(6-(((Trans-3-(3-cyclopropyl-4-(quinoxalin-2-yl)-1H-pyrazol-1-yl)cyclobutyl)methyl)amino)-1-oxoisoindolin-2-yl)piperidine-2,6-dione] | – | – | – | – |
| > 1000 | – | > 1000 | 100 to 1000 | O=C1CCC(N2C(=O)c3ccc(NC[C@H]4C[C@H](n5nc(C6CC6)c6cncnc65)C4)cc3C2=O)C(=O)N1 (stereo partly drawn) [GS-663, 5-(((Trans-3-(3-cyclopropyl-1H-pyrazolo[3,4-d]pyrimidin-1-yl)cyclobutyl)methyl)amino)-2-(2,6-dioxopiperidin-3-yl)isoindoline-1,3-dione] | – | – | – | – |
| – | – | – | – | CC(C)n1cnc2cnc(-c3cn([C@H]4C[C@H](CNc5ccc6c(c5)C(=O)N(C5CCC(=O)NC5=O)C6=O)C4)nc3C3CC3)cc21 (stereo partly drawn) [GS-664, 5-(((Trans-3-(3-cyclopropyl-4-(1-isopropyl-1H-imidazo[4,5-c]pyridin-6-yl)-1H-pyrazol-1-yl)cyclobutyl)methyl)amino)-2-(2,6-dioxopiperidin-3-yl)isoindoline-1,3-dione] | > 1000 | 100 to 1000 | > 1000 | 100 to 1000 |
| > 1000 | – | > 1000 | – | O=C1CCC(N2C(=O)c3ccc(NC[C@H]4C[C@H](n5cc(-c6ncccc6C6CCNCC6)c(C6CC6)n5)C4)cc3C2=O)C(=O)N1 (stereo partly drawn) [GS-665, 5-(((Trans-3-(3-cyclopropyl-4-(3-(piperidin-4-yl)pyridin-2-yl)-1H-pyrazol-1-yl)cyclobutyl)methyl)amino)-2-(2,6-dioxopiperidin-3-yl)isoindoline-1,3-dione] | – | – | – | – |
| > 1000 | – | > 1000 | – | CN1CCC(Nc2cn([C@H]3C[C@H](CNc4ccc5c(c4)C(=O)N(C4CCC(=O)NC4=O)C5=O)C3)nc2C2CC2)CC1 (stereo partly drawn) [GS-666, 5-(((Trans-3-(3-cyclopropyl-4-((1-methylpiperidin-4-yl)amino)-1H-pyrazol-1-yl)cyclobutyl)methyl)amino)-2-(2,6-dioxopiperidin-3-yl)isoindoline-1,3-dione] | – | – | – | – |
| – | – | – | – | O=C1CCC(N2C(=O)c3ccc(NC[C@H]4C[C@H](n5cc(NC6CCCCC6)c(C6CC6)n5)C4)cc3C2=O)C(=O)N1 (stereo partly drawn) [GS-667, 5-(((Trans-3-(4-(cyclohexylamino)-3-cyclopropyl-1H-pyrazol-1-yl)cyclobutyl)methyl)amino)-2-(2,6-dioxopiperidin-3-yl)isoindoline-1,3-dione] | 10 to 100 | < 10 | 10 to 100 | 10 to 100 |
| < 10 | < 10 | < 10 | < 10 | Cc1cc(F)cnc1-c1cn([C@H]2C[C@H](CNc3ccc4c(c3)CN(C3CCC(=O)NC3=O)C4=O)C2)nc1C(F)F (stereo partly drawn) [GS-668, 3-(5-(((Trans-3-(3-(difluoromethyl)-4-(5-fluoro-3-methylpyridin-2-yl)-1H-pyrazol-1-yl)cyclobutyl)methyl)amino)-1-oxoisoindolin-2-yl)piperidine-2,6-dione] | – | – | – | – |
| 100 to 1000 | 100 to 1000 | > 1000 | 100 to 1000 | O=C1CCC(N2C(=O)c3ccc(NC[C@H]4C[C@H](n5cc(Nc6ccccn6)c(C6CC6)n5)C4)cc3C2=O)C(=O)N1 (stereo partly drawn) [GS-669, 5-(((Trans-3-(3-cyclopropyl-4-(pyridin-2-ylamino)-1H-pyrazol-1-yl)cyclobutyl)methyl)amino)-2-(2,6-dioxopiperidin-3-yl)isoindoline-1,3-dione] | – | – | – | – |
| 10 to 100 | 10 to 100 | 100 to 1000 | 10 to 100 | O=C1CCC(N2C(=O)c3ccc(NC[C@H]4C[C@H](n5cc(Nc6cccnc6)c(C6CC6)n5)C4)cc3C2=O)C(=O)N1 (stereo partly drawn) [GS-670, 5-(((Trans-3-(3-cyclopropyl-4-(pyridin-3-ylamino)-1H-pyrazol-1-yl)cyclobutyl)methyl)amino)-2-(2,6-dioxopiperidin-3-yl)isoindoline-1,3-dione] | – | – | – | – |
| – | – | – | – | O=C1CCC(N2C(=O)c3ccc(NC[C@H]4C[C@H](n5cc(Nc6ccncc6)c(C6CC6)n5)C4)cc3C2=O)C(=O)N1 (stereo partly drawn) [GS-671, 5-(((Trans-3-(3-cyclopropyl-4-(pyridin-4-ylamino)-1H-pyrazol-1-yl)cyclobutyl)methyl)amino)-2-(2,6-dioxopiperidin-3-y)isoindoline-1,3-dione] | > 1000 | – | > 1000 | 100 to 1000 |
| > 1000 | – | > 1000 | 100 to 1000 | Cc1ccc2c(C3CC3)nn([C@H]3C[C@H](CNc4ccc5c(c4)C(=O)N(C4CCC(=O)NC4=O)C5=O)C3)c2n1 (stereo partly drawn) [GS-672, 5-(((Trans-3-(3-cyclopropyl-6-methyl-1H-pyrazolo[3,4-b]pyridin-1-yl)cyclobutyl)methyl)amino)-2-(2,6-dioxopiperidin-3-yl)isoindoline-1,3-dione] | – | – | – | – |
| > 1000 | 100 to 1000 | > 1000 | 100 to 1000 | Cc1cnc2c(c1)c(C1CC1)nn2[C@H]1C[C@H](CNc2ccc3c(c2)C(=O)N(C2CCC(=O)NC2=O)C3=O)C1 (stereo partly drawn) [GS-673, 5-(((Trans-3-(3-cyclopropyl-5-methyl-1H-pyrazolo[3,4-b]pyridin-1-yl)cyclobutyl)methyl)amino)-2-(2,6-dioxopiperidin-3-yl)isoindoline-1,3-dione] | – | – | – | – |
